This is an account of results in patent US20150216168A1, “USE OF SUBSTITUTED 2-AMIDOBENZIMIDAZOLES, 2-AMIDOBENZOXAZOLES AND 2-AMIDOBENZOTHIAZOLES OR SALTS THEREOF AS ACTIVE SUBSTANCES AGAINST ABIOTIC PLANT STRESS” (BAYER CROPSCIENCE AG, priority 2012, published 2015).

One assay relates to Hordeum vulgare. In words: Drought stress test on greenhouse crop plants, spray application, barley. The settings on record: 500 g/ha. It is filed as in vivo. On the procedure: (§1) Seeds of monocotyledonous and dicotyledonous crop plants were laid out in sandy loam in wood-fiber pots, covered with soil or sand and cultivated in a greenhouse under good growth conditions. The test plants were treated at the early leaf stage (BBCH10-BBCH13). To assure uniform water supply before commencement of stress, the potted plants were supplied with water by dam irrigation prior to substance application. The compounds according to the invention, formulated in the form of wettable powders (WP), were sprayed onto the green parts of the plants as an aqueous suspension at an equivalent water application rate of 600 I/ha with addition of 0.2% wetting agent (e.g. agrotin). Substance application was followed immediately by stress treatment of the plants. For this purpose, the pots were transferred into plastic inserts in order to prevent them from subsequently drying out too quickly. Drought stress was induced by gradual drying out under the following conditions:
(§2) “Day”: 14 hours with illumination at 26° C. […]
(§3) After the recovery phase had ended, the intensities of damage were analyzed in visual comparison to untreated, unstressed controls for the same age. The intensity of damage was first recorded as a percentage (100%=plants have died, 0%=like control plants). […]
(§4) In each trial, 3 pots per crop and dosage were treated and evaluated; the resulting efficacies are thus averages. […]

Another assay relates to Zea mays. In words: Drought stress test on greenhouse crop plants, spray application, corn. The settings on record: 250 g/ha. It is filed as in vivo. On the procedure: as §1, §2, §3, §4

Molecules are shown by their SMILES.

For the molecule `NC(=O)c1cccc2oc(-c3ccc(Cl)cc3Cl)nc12` [B1-18, 2-(2,4-Dichlorophenyl)-1,3-benzoxazole-4-carboxamide], in the assay with Hordeum vulgare, the “EF (HORVS): efficacy, percentage reduction in the intensity of damage” value is reported as more than 5%. Moreover, in the assay on Zea mays, the “EF (ZEAMX): efficacy, percentage reduction in the intensity of damage” value is more than 5%.
